In US20260034079A1, “PHARMACEUTICAL COMPOSITION CONTAINING HYDROXYUREA FOR USE IN THE TREATMENT OF SEVERE CHRONIC ANEMIA” (THERAVIA, priority 2019, published 2026):

System: sickle cell patients with severe chronic anaemia
Experiment: Clinical trial: hematological parameters during treatment with Siklos in HU-naive sickle cell patients with severe chronic anaemia
Type: in vivo, human
Description: This study was conducted with a pharmaceutical composition identical to that of Siklos.
The dose of hydroxycarbamide is comprised from 5 to 30 mg/kg/day.
The results of the evaluation of the hematological parameters of the patients are recorded in the table below.

[1] = 12 months after the start of the treatment, p<0.001

## NC(=O)NO [hydroxycarbamide, hydroxyurea]
12 months after initiation of Siklos (between 10 and 14 months), 41 patients, base value 7.16 ± 1.06, 5 to 30 mg/kg/day
  Haemoglobin, value after initiation of the treatment: 7.89 ± 1.11 g/dL
12 months after initiation of Siklos (between 10 and 14 months), 41 patients, p 0.001
  Variation of the haemoglobin, change with respect to the base value: 0.73 ± 1.30 g/dL
[1]
  Mean blood volume, change: +10.82±11.42
  Number of reticulocytes, change: −91.5±115.6
After the start of the treatment, indicating adequate compliance
  Absolute number of neutrophil: decreased
At least 6 months after initiation of Siklos (between 5 and 14 months), 23 patients, p <0.001
  Evolution of the fetal haemoglobin, change with respect to the base value: 6.37±6.38%
At least 6 months after initiation of Siklos (between 5 and 14 months), 55 patients, p <0.001
  Variation of the haemoglobin, change with respect to the base value: 0.65 ± 1.24 g/dL
